From patent EP0507854B1 (priority 1989, dated 1991)

Assays:
fowl plague viral NA = conditions: result in words; cited from earlier work
[1] = target: Influenza A (H1N1) neuraminidase (Influenza A virus, UniProt P03468); assay: biochemical
[2] = target: Influenza A (H3N2) neuraminidase (Influenza A virus, UniProt P03482); assay: biochemical
[3] = target: Influenza B neuraminidase (Influenza B virus, UniProt P03474); assay: biochemical
C. perfrinqens NA = conditions: after 22 hrs; cited from earlier work
A. ureafaciens NA = conditions: after 22 hrs; cited from earlier work
V cholera NA = V cholera NA (Vibrio cholerae serotype O1, UniProt P0C6E9); conditions: after 22 hrs; cited from earlier work
Chain of V cholera NA (P0C6E9 25-781 limits assumed): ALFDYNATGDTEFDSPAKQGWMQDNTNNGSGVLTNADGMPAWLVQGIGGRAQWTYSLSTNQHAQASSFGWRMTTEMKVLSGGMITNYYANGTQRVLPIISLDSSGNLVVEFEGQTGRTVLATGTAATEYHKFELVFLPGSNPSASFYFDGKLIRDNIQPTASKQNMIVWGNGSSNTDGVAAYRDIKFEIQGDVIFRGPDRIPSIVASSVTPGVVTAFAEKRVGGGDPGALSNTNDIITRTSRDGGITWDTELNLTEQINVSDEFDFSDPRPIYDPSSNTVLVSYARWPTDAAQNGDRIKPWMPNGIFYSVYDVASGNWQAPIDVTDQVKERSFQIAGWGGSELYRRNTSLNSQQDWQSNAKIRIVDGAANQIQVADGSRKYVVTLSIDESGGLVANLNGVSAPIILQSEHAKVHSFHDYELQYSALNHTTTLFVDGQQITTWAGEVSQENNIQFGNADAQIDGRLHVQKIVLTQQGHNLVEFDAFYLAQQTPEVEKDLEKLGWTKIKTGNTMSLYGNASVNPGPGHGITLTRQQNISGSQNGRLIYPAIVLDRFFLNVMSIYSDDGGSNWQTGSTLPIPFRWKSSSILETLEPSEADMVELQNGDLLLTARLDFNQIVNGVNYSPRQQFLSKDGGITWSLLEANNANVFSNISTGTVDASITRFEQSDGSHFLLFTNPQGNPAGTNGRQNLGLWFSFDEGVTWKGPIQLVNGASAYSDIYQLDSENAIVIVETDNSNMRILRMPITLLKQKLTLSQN

Chain of Influenza A (H1N1) neuraminidase (P03468 whole entry, looked up): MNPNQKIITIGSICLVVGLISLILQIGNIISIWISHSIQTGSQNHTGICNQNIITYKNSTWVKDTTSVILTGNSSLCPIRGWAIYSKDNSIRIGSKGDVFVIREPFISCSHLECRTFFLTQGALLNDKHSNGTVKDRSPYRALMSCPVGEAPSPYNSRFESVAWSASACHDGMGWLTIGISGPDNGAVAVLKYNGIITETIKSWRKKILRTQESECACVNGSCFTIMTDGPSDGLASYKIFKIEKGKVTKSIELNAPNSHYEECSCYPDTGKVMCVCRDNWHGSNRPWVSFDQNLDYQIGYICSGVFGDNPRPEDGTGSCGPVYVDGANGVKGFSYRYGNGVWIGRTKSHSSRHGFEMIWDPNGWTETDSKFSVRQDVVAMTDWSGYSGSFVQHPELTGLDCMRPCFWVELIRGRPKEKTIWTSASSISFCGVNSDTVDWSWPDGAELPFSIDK
Chain of Influenza B neuraminidase (P03474 whole entry, looked up): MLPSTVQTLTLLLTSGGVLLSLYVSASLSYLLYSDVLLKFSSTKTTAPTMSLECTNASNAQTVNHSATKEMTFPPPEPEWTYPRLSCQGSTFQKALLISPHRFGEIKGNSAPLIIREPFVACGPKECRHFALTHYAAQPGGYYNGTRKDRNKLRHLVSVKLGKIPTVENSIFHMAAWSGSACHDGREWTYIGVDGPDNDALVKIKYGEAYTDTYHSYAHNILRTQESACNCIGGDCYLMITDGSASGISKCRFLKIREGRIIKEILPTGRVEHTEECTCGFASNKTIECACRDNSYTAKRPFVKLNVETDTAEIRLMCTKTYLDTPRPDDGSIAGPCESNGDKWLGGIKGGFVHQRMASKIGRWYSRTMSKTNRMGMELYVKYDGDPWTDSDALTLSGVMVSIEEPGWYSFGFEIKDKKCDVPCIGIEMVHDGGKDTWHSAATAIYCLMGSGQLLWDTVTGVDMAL
Chain of Influenza A (H3N2) neuraminidase (P03482 whole entry, looked up): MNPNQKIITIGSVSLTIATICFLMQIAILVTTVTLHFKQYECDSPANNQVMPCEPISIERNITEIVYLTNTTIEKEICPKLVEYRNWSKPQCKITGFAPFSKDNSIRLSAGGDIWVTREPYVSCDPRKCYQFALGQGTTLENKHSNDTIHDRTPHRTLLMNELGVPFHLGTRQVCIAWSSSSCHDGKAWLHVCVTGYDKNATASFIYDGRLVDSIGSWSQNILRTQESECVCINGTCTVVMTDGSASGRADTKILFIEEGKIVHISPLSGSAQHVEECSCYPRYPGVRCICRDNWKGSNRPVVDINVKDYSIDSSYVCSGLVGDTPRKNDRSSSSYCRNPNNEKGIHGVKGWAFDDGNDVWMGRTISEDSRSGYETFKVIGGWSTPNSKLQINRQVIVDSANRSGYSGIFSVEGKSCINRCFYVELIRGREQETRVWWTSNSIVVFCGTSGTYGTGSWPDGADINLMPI

## COC1(C(=O)O)CCC(NC(C)=O)C(C(O)C(O)CO)O1 (stereo not drawn) [methyl-alpha-glycoside of 4-deoxy Neu5Ac]
Fowl plague viral NA
  substrate quality: good substrate

## CC(=O)N[C@H]1[C@H]([C@H](O)[C@H](O)CO)OC(O)(C(=O)O)C[C@@H]1O (stereo partly drawn) [Neu5Ac, N-acetylneuraminic acid]
[1]
  Ki: 626 µM

## CO[C@H]1CC(O)(C(=O)O)O[C@@H]([C@H](O)[C@H](O)CO)[C@@H]1NC(C)=O (stereo partly drawn) [4-methoxy Neu5Ac, 4-methoxy-N-acetylneuraminic acid]
Fowl plague viral NA
  substrate quality: excellent substrate

## CC(=O)N[C@@H]1CCC(O)(C(=O)O)O[C@H]1[C@H](O)[C@H](O)CO (stereo partly drawn) [4-deoxy Neu5Ac, 4-deoxy-N-acetylneuraminic acid]
[2]
  Ki: 2200 µM
[1]
  Ki: 998 µM
[3]
  Ki: 1050 µM

## CC(=O)NC1C(O)CC(OCc2ccccc2)(C(=O)O)OC1C(O)C(O)CO [benzyl-alpha-glycosides of N-acetyl-4-epi-D-neuraminic acid]
C. perfrinqens NA
  substrate cleaved: 100%
A. ureafaciens NA
  substrate cleaved: 50%
V cholera NA
  substrate cleaved: 11%
